What all share (format): in vivo, Beta vulgaris
Data set [1] deals with regenerated wild-type sugar beet plants. Kind of data set: In vitro growth of regenerated wild-type plants on media containing SAF. As to conditions: media containing SAF 2.5 μM; wild-type genotype. As for the experimental part: (§1) In other experiments, screening for resistance to PPO herbicides was done on 25 regenerated sugar beet plants obtained after transfection of guard cell protoplasts by growing these plants (8 clones or copies per plant) on media containing SAF at a concentration of 2.5 μM. Visual observation of growth was done after 20 to 28 days. Plants were scored visually according to their growth, and marked “OK” for plants showing growth, “Bit growth” for plants showing limited growth, “No” for plants showing no growth, or “Dead” for plants that were dead after SAF exposure. The concentration of SAF used in this screen was identified as impacting severely on regenerated wild-type plants obtained after protoplast isolation and regeneration from the sugar beet genotype, from which guard cell protoplasts are isolated for transfection.

Data set [2] relates to sugar beet plants carrying the R126L mutation. As to conditions: SAF 1X, 200 g a.i./ha, 17 days after spraying. On the procedure: (§2) In other experiments, plants carrying the mutation R126L described below in Table 6 were acclimatized in soil for 3-5 weeks and screened for PPO resistance with a spray test of the PPO herbicides Saflufenacil (Brand name TREEVIX at a recommended dose of 200 g a.i./ha), Pyraflufen-ethyl (Brand name EVOLUTION at a recommended dose of 0.8l/ha, or a.i. 26.5 g/l) Saflufenacil (pure compound Sigma at a recommended dose of 200 g a.i./ha). The spray was performed at a concentration of 0.5× and 1× of the recommended dose for Saflufenacil), and 0.2× for Pyraflufen-ethyl). The pure chemical compound SAF used on the regenerated plants in vitro was also used in this screen at 1× recommended dose of 200 g ai/Ha. Water treatment was included as a control. […] In both experiments each sugar beet plant was multiplied in vitro as to include a total of minimum 4 clones or replicates of each edited sugar beet plant per herbicide treatment. The phytotoxicity effect of PPO inhibiting herbicides was measured in mutated sugar beet plants (on a set of minimum 4 clones per edited sugar beet plant) based on a scale from 0% to 100%, or 1 to 5, (i.e. 0% or 1 being no damage/no phytotoxicity observed and 100% or 5, being all plants were completely damaged or killed,) compared to wild-type plants. […]
(§3) No score is provided when the plant has not been tested, noted as NT in the table (not tested). Water treatment was included when enough plants were available. At least 4 copies per edited plant were sprayed. Scores were given on group of 4 copies per edited plant. HDR=edited plant showing the expected mutation R to L at position 126, INDEL=edited plant showing another type of edit than the expected mutation.

Data set [3] deals with sugar beet plants edited at position 126 showing another type of edit than the expected mutation. As to conditions: SAF 1X, 200 g a.i./ha, 17 days after spraying. On the procedure:
as §2, §3

The subject of a further data set is edited sugar beet plants. Nature of the data set: In vitro growth of regenerated edited plants on media containing SAF. As to conditions: media containing SAF 2.5 μM. On the procedure: as §1
Data set [4] deals with wild-type sugar beet plants. Kind of data set: Spray test of PPO herbicides on control (Ctrl) sugar beet plants. As to conditions: SAF 1X, 200 g a.i./ha, 17 days after spraying. As for the experimental part:
as §2
No score is provided when the plant has not been tested, noted as NT in the table (not tested). […]

We go through one molecule from patent publication US20240368619A1, “METHODS AND COMPOSITIONS FOR PPO HERBICIDE TOLERANCE” (SESVanderHave NV, priority 2021, published 2024).

Structures are written as SMILES. Where two headings read alike, the source gives them in different places.

On to `CC(C)N(C)S(=O)(=O)NC(=O)c1cc(-n2c(=O)cc(C(F)(F)F)n(C)c2=O)c(F)cc1Cl` [SAF, saflufenacil], for which the “effect on growth of regenerated wild-type plants (visual)” value in data set [1] is “severe growth retardation and in some cases lethal effect”. The “phytotoxicity score 1 to 5 (healthy to damaged)” value stood at 4 in data set [2] (event HTC003 (HDR)); 3 in data set [2] (event HTC007 (HDR)); 2 in data set [2] (event HTC013 (HDR)); 3 in data set [2] (event HTC015 (HDR)); 2 in data set [2] (event HTC018 (HDR)); 4 in data set [2] (event HTC024 (HDR)). Moreover, the “phytotoxicity score 1 to 5 (healthy to damaged)” value in data set [2] (event HTC046 (HDR)) was found to be 2; in data set [2] (event HTC056 (HDR)), 4; in data set [3] (event HTC001 (INDEL)) it was 5; in data set [3] (event HTC002 (INDEL)), 4; in data set [3] (event HTC009 (INDEL)), 4; in data set [3] (event HTC012 (INDEL)) it was 4. Further, the “phytotoxicity score 1 to 5 (healthy to damaged)” value was 4 in data set [3] (event HTC014 (INDEL)); 4 in data set [3] (event HTC016 (INDEL)); 4 in data set [3] (event HTC017 (INDEL)); 5 in data set [3] (event HTC021 (INDEL)); 2 in data set [3] (event HTC023 (INDEL)); 4 in data set [3] (event HTC028 (INDEL)). Besides, the “phytotoxicity score 1 to 5 (healthy to damaged)” value in data set [4] (B8M52 (Ctrl)) and in data set [4] (HTC005 (Ctrl)) was 5 throughout. Moreover, in the data set on edited sugar beet plants (20 to 28 days, edited plants scored as OK and Bit growth), the “growth of edited plants (visual)” value is on record as “good level of SAF tolerance”. The “growth and plant development of edited versus wild-type plants (visual)” value in the data set on edited sugar beet plants (20 days, HTC013 and HTC015 (R126L), 8 copies each, versus wild-type) is “Clear differences in growth, and plant development”.
